For 4 compounds, MIC results are on record in patent US4455419A, “2'-Modified kanamycins and production thereof” (Zaidan Hojin Biseibutsu Kagaku Kenkyu Kai, priority 1981, dated 1984).

≈ marks a conversion by molar mass, not a printed value. Like-named read-outs stand apart in the source and are kept apart here. Where only a bound is given, the exact number is not on record here.

Experiment in all cases: Minimum inhibitory concentration, standard serial dilution method
Holding throughout (assay type): cell-based

The test system of one experiment is Escherichia coli No. 29. The conditions noted are these: read-out: Minimum Inhibitory Concentrations. An excerpt: (§1) For comparison purpose, the minimum inhibitory concentrations (mcg/ml) of the parent compound, kanamycin A are also shown in Table II.
Experiment [1] has as its system Staphylococcus epidermidis 109. The conditions noted are these: read-out: Minimum Inhibitory Concentrations.
Text: as §1

The test system of experiment [2] is Klebsiella pneumoniae PCI-602. The settings on record: read-out: Minimum Inhibitory Concentrations.
Text: as §1

Experiment [3] has as its system Escherichia coli JR66/W677 (A-20683). The conditions noted are these: read-out: Minimum Inhibitory Concentrations.
Text: as §1

In experiment [4] the test system is Staphylococcus aureus Rosenbach FDA 209-OJC-1. The settings on record: read-out: Minimum Inhibitory Concentrations.
Text: as §1

Experiment [5] concerns Pseudomonas aeruginosa IAM-1007. The conditions noted are these: read-out: Minimum Inhibitory Concentrations.
Text: as §1

Experiment [6] has as its system Salmonela typhimlium LT-2. The conditions noted are these: 24 h, read-out: Minimum Inhibitory Concentrations.
Text: as §1

Another experiment has as its system Providencia morgani Kono. The conditions noted are these: read-out: Minimum Inhibitory Concentrations.
Text: as §1

For experiment [7], the system named is Pseudomonas aeruginosa E-2 IAM-1007. The settings on record: read-out: Minimum Inhibitory Concentrations.
Text: as §1

For experiment [8], the system named is Serratia marcescens No. 1. The conditions noted are these: read-out: Minimum Inhibitory Concentrations.
Text: as §1

[9] abbreviates: Staphylococcus epidermidis, 109, 24 h.
The mark [10] stands for this setting: Klebsiella pneumoniae, PCI602, 24 h.
Where [11] appears, read: Escherichia coli JR66/W677 (A-20683), nutrient agar, 37° C., 24 hours.
[12] abbreviates: Staphylococcus aureus, FDA209, 24 h.
The mark [13] stands for this setting: Pseudomonas aeruginosa, IAM1007, 24 h.
[14] abbreviates: Serratia marcescens, NO.1, 24 h.
[15] abbreviates: Escherichia coli No. 29, nutrient agar, 37° C., 24 hours.

On to `NC[C@H]1O[C@H](O[C@H]2[C@H](O)[C@@H](O[C@H]3O[C@H](CO)[C@@H](O)[C@H](N)[C@H]3O)[C@H](N)C[C@@H]2N)[C@@H](O)[C@@H](O)[C@@H]1O` [2'-Epikanamycin A, 2'-epikanamycin A], for which the MIC in the experiment with Escherichia coli No. 29 (Escherichia coli, NO.29, 24 h) is 6.25 µg/mL (≈ 12.9 µM); in [1] (setting [9]), 25 µg/mL (≈ 51.6 µM); in experiment [2] (setting [10]) it was 6.25 µg/mL (≈ 12.9 µM); in [3] (setting [11]) it was above 100 µg/mL; in experiment [4] (setting [12]) it was 0.39 µg/mL (≈ 0.805 µM); in [5] (setting [13]), 50 µg/mL (≈ 103 µM). Moreover, the MIC is 6.25 µg/mL (≈ 12.9 µM) in experiment [6]; 6.25 µg/mL (≈ 12.9 µM) in the experiment on Providencia morgani Kono (Providencia, 24 h); above 100 µg/mL in experiment [7] (setting [13]); 12.5 µg/mL (≈ 25.8 µM) in experiment [8] (setting [14]).
Take `NC[C@H]1O[C@H](O[C@H]2[C@H](O)[C@@H](O[C@H]3O[C@H](CO)[C@@H](O)[C@H](N)[C@H]3O)[C@H](N)C[C@@H]2N)[C@@H](N)[C@@H](O)[C@@H]1O` [2'-Epikanamycin B, 2'-epikanamycin B]: the MIC was 50 µg/mL (≈ 103 µM) in the experiment on Escherichia coli No. 29 (Escherichia coli, NO.29, 24 h); 50 µg/mL (≈ 103 µM) in experiment [1] (setting [9]); 50 µg/mL (≈ 103 µM) in experiment [2] (setting [10]); above 100 µg/mL in experiment [3] (Escherichia coli, 24 h); 1.56 µg/mL (≈ 3.23 µM) in experiment [4] (setting [12]); above 100 µg/mL in [5] (setting [13]). The MIC in experiment [6] is 50 µg/mL (≈ 103 µM); with Providencia morgani Kono (Providencia, 24 h), 50 µg/mL (≈ 103 µM); in experiment [7] (setting [13]), above 100 µg/mL; in experiment [8] (setting [14]), 100 µg/mL (≈ 207 µM).
As for `NC[C@H]1O[C@H](O[C@H]2[C@H](O)[C@@H](O[C@H]3O[C@H](CO)[C@@H](O)[C@H](N)[C@H]3O)[C@H](N)C[C@@H]2N)C[C@@H](O)[C@@H]1O` [2'-Deoxykanamycin A, 2'-deoxykanamycin A], the MIC with Escherichia coli No. 29 (setting [15]) came to 0.39 µg/mL (≈ 0.832 µM); in experiment [1] (Staphylococcus epidermidis 109, nutrient agar, 37° C., 24 hours), 0.2 µg/mL (≈ 0.427 µM); in [2] (PCI602, Klebsiella pneumoniae PCI-602, nutrient agar, 37° C., 24 hours), 0.78 µg/mL (≈ 1.66 µM); in experiment [3] (setting [11]), 50 µg/mL (≈ 107 µM); in experiment [4] (FDA209, Staphylococcus aureus Rosenbach FDA 209-OJC-1, nutrient agar, 37° C., 24 hours) it was 0.05 µg/mL (≈ 0.107 µM); in experiment [5] (IAM1007, Pseudomonas aeruginosa IAM-1007, nutrient agar, 37° C., 24 hours), 1.56 µg/mL (≈ 3.33 µM). In addition, the MIC was 0.78 µg/mL (≈ 1.66 µM) in experiment [6]; 0.78 µg/mL (≈ 1.66 µM) in the experiment on Providencia morgani Kono (Providencia morgani Kono, nutrient agar, 37° C., 24 hours); 6.25 µg/mL (≈ 13.3 µM) in experiment [7] (IAM1007, Pseudomonas aeruginosa E-2 IAM-1007, nutrient agar, 37° C., 24 hours); 0.78 µg/mL (≈ 1.66 µM) in experiment [8] (Serratia marcescens No. 1, nutrient agar, 37° C., 24 hours).
Regarding `NC[C@H]1O[C@H](O[C@H]2[C@H](O)[C@@H](O[C@H]3O[C@H](CO)[C@@H](O)[C@H](N)[C@H]3O)[C@H](N)C[C@@H]2N)[C@H](O)[C@@H](O)[C@@H]1O` [Kanamycin A, kanamycin A, reference compound], the MIC was 0.78 µg/mL (≈ 1.61 µM) in the experiment with Escherichia coli No. 29 (setting [15]); 3.13 µg/mL (≈ 6.46 µM) in experiment [1] (setting [9]); 1.56 µg/mL (≈ 3.22 µM) in experiment [2] (setting [10]); above 100 µg/mL in experiment [3] (setting [11]); 0.1 µg/mL (≈ 0.206 µM) in experiment [4] (setting [12]); 12.5 µg/mL (≈ 25.8 µM) in experiment [5] (setting [13]). The MIC in experiment [6] amounted to 1.56 µg/mL (≈ 3.22 µM); with Providencia morgani Kono (Providencia, 24 h) it was 3.13 µg/mL (≈ 6.46 µM); in experiment [7] (setting [13]), 50 µg/mL (≈ 103 µM); in experiment [8] (setting [14]), 3.13 µg/mL (≈ 6.46 µM).
